Laboratory results taken from patent publication US10428043B2, “Green oxidation catalytic system” (TRUSTEES OF BOSTON UNIVERSITY, priority 2014, dated 2019).
Blank lines part the entries; values can stand above or below the compound they belong to.

What was measured:
[1] = Cyclic voltammetry, redox potentials; type: physicochemical; conditions: no added halide; for E1/2: in mV
Description: All reagents and solvents used were purchased from commercial sources and used as received unless otherwise noted. Prior to use, methanol (Pharmco-Aaper) was distilled over magnesium metal, dimethyl sulfoxide (Fisher Scientific) was distilled over calcium hydride, triethylamine was distilled over sodium metal and unstabilized dichloromethane (Fisher Scientific) was distilled over calcium hydride. Ferrocene was purified by sublimation for use as a reference for electrochemical analyses. All manipulations involving ferrous complexes were carried out in an inert atmosphere glovebox (M. Braun, Stratham, N.H.) with distilled and thoroughly degassed solvents. UV/Vis spectra were collected using a Hewlett Packard Spectrometer (8453). IR spectra were collected using a Thermo Nicolet AVATAR 330-FT-IR. Cyclic voltammetry experiments were performed using a Princeton Applied Research model 273 potentiostat with a glassy carbon working electrode, a silver wire reference electrode and a platinum wire counter electrode. Electron Paramagnetic Resonance (EPR) spectra were collected on a Bruker ESP-300E spectrometer operating at 9.460 GHz. NMR spectra were recorded at 25° C. using a Varian spectrometer operating at 400 MHz with all chemical shifts referenced to SiMe4. Iron concentrations were determined using a Varian AA240Z Atomic Absorption Spectrometer.
Cyclic voltammetry was performed inside an inert atmosphere (N2) box, with degassed DMSO as the solvent and tetra-N-butylammonium hexafluorophosphate as the supporting electrolyte (0.2M). The ferrocenium/ferrocene couple was used as an internal reference; reduction potential values were corrected by assigning the ferrocenium/ferrocene couple to 0.64 V versus NHE (Zanello, P. Inorganic Electrochemistry; The Royal Society of Chemistry: Cambridge, 2003). Chloride titration experiments were performed by collecting CV data after the addition of one and two 50 μL aliquots of 204 mM [NEt4][Cl] to 3.0 mL of 3.4 mM [Fe^II(N2O1py)(Cl)2]^− (concentration determined using flame atomic absorption spectroscopy) and correcting the potential with reference to the ferrocenium/ferrocene couple.
It should be noted that these redox potentials were determined in the absence of excess halide, and further CV studies will be performed in the presence of excess halide for all derivatives of the N2O1py system.

[2] = Stopped-flow kinetics of NO binding at −85° C. in methanol; conditions: NO 6.4 mM
Description: Stopped-flow Spectroscopy and Data analysis.

[3] = cited from earlier work
[4] = Catalytic oxidation of methanol to formaldehyde with α-KG and O2 (Nash assay); conditions: N2O1py system, five equivalents [Na][αKG], O2, 60 min
[5] = Room temperature O2 reactivity of ferrous complexes followed by UV/vis; conditions: αKG adduct
Experimental: The solution was transferred to an anaerobic UV/vis cell and sealed. An initial spectrum was obtained of the ferrous complex, and then the solution was exposed to the air. Spectra were recorded every minute for the first two minutes and then every 5-30 minutes after that for seven hours. The absorbance was monitored at 350 nm to follow formation of the oxidized complex.
This solution was then transferred to an anaerobic UV/vis cell and sealed. An initial spectrum was obtained of the ferrous complex, and then the solution was exposed to the air. Spectra were collected every minute for the first 30 minutes and then every 5-20 minutes after that for 2 hours. The absorbance was monitored at 315 nm to follow formation of the oxidized complex.

Compound: CN(C)CCN(C)CC(=O)[O-].[Cl-].[Cl-].[Cl-].[Fe+3] [Fe^III N2O1, [Fe^III(N2O1)(Cl)3]]
E1/2 [1]: +136

Compound: CN(C)c1cccc2cccc([NH+](C)C)c12.CN(CC(=O)[O-])Cc1ccccn1.[Cl-].[Cl-].[Cl-].[Fe+3] [Fe^III N2O1py, [PSH][Fe^III(N2O1py)(Cl)3]]
ΔE [1]: 128 mV | E1/2 [1]: +189

k20 (loss of a ligand before NO binding) [2]: 8.2 s⁻¹ | k21 (second order, NO binding) [2]: 127 M⁻¹ s⁻¹
Compound: O.O.O=C([O-])CN(CCN(CC(=O)[O-])CC(=O)O)CC(=O)[O-].[Cl-].[K+].[Ru+3] [K[Ru^III(Hedta)Cl].2H2O]
rate k of reaction with NO ([3]; room temperature, aqueous solution, depending on pH): 38000 to 120000 M⁻¹ s⁻¹

Compound: O.O.O.O.O.O.[Fe+2] [[Fe(H2O)6)]^2+]
second order rate constant k of NO binding ([3]; 20° C., stopped-flow with laser flash photolysis): 1.42e+06 M⁻¹ s⁻¹

Compound: CN(CC(=O)[O-])Cc1ccccn1.O=C([O-])CCC(=O)C(=O)[O-].[Fe+2] [[Fe^II(N2O1py)(αKG)]]
turnover number (equivalents of formaldehyde per iron center) ([4]; iron complex 1.0 μM): 33 | turnover number (equivalents of formaldehyde per equivalent of iron) ([4]; iron complex 100 μM): 0.7 | time for reaction with O2, in words [5]: within minutes
